Laboratory results published in US5719287A, “Intermediates for inhibitors of HIV protease and method of preparation thereof” (Eli Lilly and Company, priority 1995, dated 1998).

molecular target: T1, HIV-1 protease (Human immunodeficiency virus type 1 group M subtype B, UniProt P04585); experiment: biochemical; conditions: purified HIV-1 protease, MES-ALB buffer pH 5.5; 1 h preincubation, 16 h with substrate, room temperature; IC50 values for Examples 2-70 are standardized relative to Ex 1; read-out: Fluorescence Assay IC50 (converted)
T1 construct: Purified HIV-1 protease was obtained as described below; made in house; host or cells: E. coli K12 L507/pHP10D (NRRL B-18560)
Protocol: N^α -Biotin-[…]Ne-FITC)-OH
The purified peptide was labeled as follows with a fluorescent marker at the C-terminal end for use in the assay. N^α -Biotin-Gly-Ser-Gln-Asn-Tyr-Pro-lle-Val-Gly-Lys-OH (1.206 g, 0.936 mmoles) was dissolved in 100 mL of 0.1M sodium borate, pH 9.5 with stirring. Then, 3 g of fluorescein isothiocyanate (7.7 mmol) was dissolved in 15 mL dimethyl sulfoxide and the solution added to the reaction in 10 equal portions over the course of a two hour period. The reaction was allowed to proceed for a further one hour after the final addition had been made. The pH of the solution was adjusted to 3 with 5N HCl. A precipitate formed which was removed from the reaction by centrifugation.
Fluorescence HIV-1 Protease Inhibitor Assay Procedure.
To each well of a round bottom, 96-well plate is added 20 μl of the Enzyme Solution followed by 10 μl of the compound to be evaluated in 20% aqueous DMSO. Purified HIV-1 protease was obtained as described below. The solution is incubated for one hour at room temperature and then 20 μl of a solution of the substrate N^α -Biotin-[…]N^e -FITC)-OH, in MES-ALB buffer (1.5 μl/ml) is added to each well. The solutions are incubated for 16 hours at room temperature and thereafter to each well is added 150 μl of MES-ALB buffer.
To each well of a 96-well Pandex plate is added 25 μl of the Avidin Coated Beads Solution. Next, 25 μl of the diluted incubation solutions, described above, are added to each well of the Pandex plate. The solutions are mixed well and the plates are loaded into a Pandex® machine, washed, evacuated and read. Sample detection was performed by excitation at 485 nm and reading the resulting epifluorescence at 535 nm.
A culture of E. coli K12 L507/pHP10D was grown to mid-log phase at 32° C. in LB media containing 12.5 μg/ml tetracycline. The cultivation temperature was quickly elevated to 40° C. to induce gene expression, and the cells were allowed to grow for 2.5 hours at this temperature before the culture was quickly chilled on ice. The cells were centrifuged and the cell pellet was resuspended in 20 ml 50 mmol MES buffer (pH 6.0) containing 1 mmol EDTA, 1 mmol DTT, 1 mmol PMSF, and 10% glycerol (Buffer A). Cells were lysed by sonication using a Fischer Model 300 Dismembrator and a microtip probe. […] Enzymatic activity was measured by HPLC using the synthetic peptide SQNYPIV as described in Margolin et al., Biochem. Biophys. Res. Commun., 167, 554-560 (1990); the production of the pl peptide (SQNY) was measured.
Active fractions were pooled, made 1.2M in ammonium sulfate, and applied to a hexyl agarose column (2.0×18 cm) equilibrated in Buffer A containing 1.2M ammonium sulfate. The sample, in 125 ml (1.85 mg/ml), was loaded at a flow rate of 1 ml/min at 4° C. […] The column was then washed isocratically in Buffer A for 120 min. Active fractions were pooled, concentrated to 10 ml using an Amicon stirred cell with a YM-10 membrane, and applied at 1 ml/min to a MonoS cation exchange column (1.0×10 cm) equilibrated in Buffer A. After washing isocratically for 30 min, protease was eluted using a linear gradient of 0-0.45M NaCl in Buffer A over 40 min followed by an isocratic wash with Buffer A containing 0.45M NaCl over 30 min. Chromatography was performed at 25° C.
Pooled active fractions were concentrated to 200 ul using an Amicon stirred cell and a YM-10 membrane, and the protease was then applied to a Superose 6 size exclusion column equilibrated in Buffer A containing 0.1M NaCl. The column was washed isocratically in this buffer at a flow rate of 0.5 ml/min.

IC50 [nM] | Structure (SMILES)
7.55 | CC(C)[C@H](NC(=O)c1cnc2ccccc2n1)C(=O)N[C@@H](Cc1ccccc1)[C@H](O)Cc1ccccc1C(=O)NC(C)(C)C [Example 34, [1S-(1R*, 4R*, 5S*)]-N-(1-(1-methylethyl)-2-oxo-3-aza-4-phenylmethyl-5-hydroxy-6-(2-(1-t-butylamino-1-oxomethyl)phenyl)hexyl)-2-quinoxalinyl acetamide]
131 | CC(C)[C@H](NC(=O)c1ccc2ccccc2c1)C(=O)N[C@@H](Cc1ccccc1)[C@H](O)Cc1ccccc1C(=O)NC(C)(C)C [Example 35]

same assay, conditions: read-out: Fluorescence Assay IC50 (converted)

IC50 [nM] | Structure (SMILES)
12.5 | CC(C)(C)NC(=O)c1ccccc1C[C@@H](O)[C@H](Cc1ccccc1)NC(=O)[C@H](CC(N)=O)NC(=O)c1ccccc1 [Example 28, [1S-(1R*, 4R*, 5S*)]-N-(1-(2-amino-2-oxoethyl)-2-oxo-3-aza-4-phenylmethyl-5-hydroxy-6-(2-(1-t-butylamino-1-oxomethyl)phenyl)hexyl)phenyl carboxamide]
129 | CC(C)(C)NC(=O)c1ccccc1C[C@@H](O)[C@H](Cc1ccccc1)NC(=O)[C@H](CC(N)=O)NC(=O)c1ccccn1 [Example 29, [1S-(1R*, 4R*, 5S*)]-N-(1-(2-amino-2-oxoethyl)-2-oxo-3-aza-4-phenylmethyl-5-hydroxy-6-(2-(1-t-butylamino-1-oxomethyl)phenyl)hexyl)-2-pyridyl carboxamide]
11.8 | CC(C)(C)NC(=O)c1ccccc1C[C@@H](O)[C@H](Cc1ccccc1)NC(=O)[C@H](CC(N)=O)NC(=O)c1cc2ccccc2cn1 [Example 30, [1S-(1R*, 4R*, 5S*)]-N-(1-(2-amino-2-oxoethyl)-2-oxo-3-aza-4-phenylmethyl-5-hydroxy-6-(2-(1-t-butylamino-1-oxomethyl)phenyl)hexyl)-3-isoquinolinyl carboxamide]
11.4 | CC(C)(C)NC(=O)c1ccccc1C[C@@H](O)[C@H](Cc1ccccc1)NC(=O)[C@H](CC(N)=O)NC(=O)Cc1ccc2ccccc2c1 [Example 31, [1S-(1R*, 4R*, 5S*)]-N-(1-(2-amino-2-oxoethyl)-2-oxo-3-aza-4-phenylmethyl-5-hydroxy-6-(2-(1-t-butylamino-1-oxomethyl)phenyl)hexyl)-2-naphthyl acetamide]
3.75 | CC(C)(C)NC(=O)c1ccccc1C[C@@H](O)[C@H](Cc1ccccc1)NC(=O)[C@H](CC(N)=O)NC(=O)COc1ccc2ccccc2n1 [Example 32, [1S-(1R*, 4R*, 5S*)]-N-(1-(2-amino-2-oxoethyl)-2-oxo-3-aza-4-phenylmethyl-5-hydroxy-6-(2-(1-t-butylamino-1-oxomethyl)phenyl)hexyl)-2-quinolinoxy acetamide]
1.21 | CCC(C)[C@H](NC(=O)OCc1ccc2ccccc2n1)C(=O)N[C@@H](Cc1ccccc1)[C@H](O)Cc1ccccc1C(=O)NC(C)(C)C (stereo partly drawn) [Example 38, [2R-(2R*, 3S*, 6S*)]-N-t-butyl-2-(2-hydroxy-3-phenylmethyl-4-aza-5-oxo-6-(1-methylpropyl)-6-(N-quinolin-2-ylmethoxycarbonylamino)hexyl)benzamide]
5.06 | CCC(C)[C@H](NC(=O)N(C)Cc1ccc2ccccc2n1)C(=O)N[C@@H](Cc1ccccc1)[C@H](O)Cc1ccccc1C(=O)NC(C)(C)C (stereo partly drawn) [Example 39, [2R-(2R*, 3S*, 6S*)]-N-t-butyl-2-(2-hydroxy-3-phenylmethyl-4-aza-5-oxo-6-(1-methylpropyl)-7-aza-8-oxo-8-(N-methyl-N-quinolin-2-ylmethylamino)octyl)benzamide]
46.7 | CC(C)(C)NC(=O)c1occc1C[C@@H](O)[C@H](Cc1ccccc1)NC(=O)[C@H](CC(N)=O)NC(=O)c1ccc2ccccc2n1 [Example 40, [1S-(1R*, 4R*, 5S*)]-N-(1-(2-amino-2-oxoethyl)-2-oxo-3-aza-4-phenylmethyl-5-hydroxy-6-(2-(1-t-butylamino-1-oxomethyl)fur-3-yl)hexyl)-2-quinolinyl carboxamide]
13 | CC(C)(C)NC(=O)c1sccc1C[C@@H](O)[C@H](Cc1ccccc1)NC(=O)[C@H](CC(N)=O)NC(=O)c1ccc2ccccc2n1 [Example 41, [1S-(1R*, 4R*. 5S*) ]-N-(1-(2-amino-2-oxoethyl)-2-oxo-3-aza-4-phenylmethyl-5-hydroxy-6-(2-(1-t-butylamino-1-oxomethyl)thien-3-yl)hexyl)-2-quinolinyl carboxamide]
523 | CC(C)(C)NC(=O)c1oc2ccccc2c1C[C@@H](O)[C@H](Cc1ccccc1)NC(=O)[C@H](CC(N)=O)NC(=O)c1ccc2ccccc2n1 [Example 42, [1S-(1R*, 4R*, 5S*)]-N-(1-(2-amino-2-oxoethyl)-2-oxo-3-aza-4-phenylmethyl-5-hydroxy-6-(2-(1-t-butylamino-1-oxomethyl)benzofur-3-yl)hexyl)-2-quinolinyl carboxamide]
2.13 | CC(C)(C)NC(=O)c1ccccc1C[C@@H](O)[C@H](Cc1ccccc1)NC(=O)[C@H](CC(=O)O)NC(=O)c1ccc2ccccc2n1 [Example 43, [1S-(1R*, 4R*, 5S*)]-N-(1-(2-hydroxy-2-oxoethyl)-2-oxo-3-aza-4-phenylmethyl-5-hydroxy-6-(2-(1-t-butylamino-1-oxomethyl)phenyl)hexyl)-2-quinolinyl carboxamide]
2.08 | CC(C)(C)NC(=O)c1ccccc1C[C@@H](O)[C@H](Cc1ccccc1)NC(=O)[C@H](CCC(=O)O)NC(=O)c1ccc2ccccc2n1 [Example 44, [1S-(1R*, 4R*, 5S*)]-N-(1-(3-hydroxy-3-oxopropyl)-2-oxo-3-aza-4-phenylmethyl-5-hydroxy-6-(2-(1-t-butylamino-1-oxomethyl)phenyl)hexyl)-2-quinolinyl carboxamide]
1.26 | CC(C)(C)NC(=O)c1ccccc1C[C@@H](O)[C@H](Cc1ccccc1)NC(=O)[C@H](CC(=O)NCc1ccccn1)NC(=O)c1ccc2ccccc2n1 [Example 45, [1S-[1R*, 4R*, 5S*)]-N-(1-(2-(N-2-pyridylmethyl)amino)-2-oxoethyl]-2-oxo-3-aza-4-phenylmethyl-5-hydroxy-6-(2-(1-t-butylamino-1-oxomethyl)phenyl)hexyl)-2quinolinyl carboxamide]
1.88 | CC(C)(C)NC(=O)c1ccccc1C[C@@H](O)[C@H](Cc1ccccc1)NC(=O)[C@H](CC(=O)NCc1ncc[nH]1)NC(=O)c1ccc2ccccc2n1 [Example 46, [1S-(1R*, 4R*, 5S*)]-N-(1-(2-(N-2-imidazolylmethyl)amino)-2-oxoethyl)-2-oxo-3-aza-4-phenylmethyl-5-hydroxy-6-(2-(1-t-butylamino-1-oxomethyl)phenyl)hexyl)-2-quinolinyl carboxamide]
1.16 | CC(C)(C)NC(=O)c1ccccc1C[C@@H](O)[C@H](Cc1ccccc1)NC(=O)[C@H](CC(=O)Nc1ccncc1)NC(=O)c1ccc2ccccc2n1 [Example 48, [1S-(1R*, 4R*, 5S*)]-N-(1-(2-(N-pyrid-4-yl)amino)-2-oxoethyl)-2-oxo-3-aza-4-phenylmethyl-5-hydroxy-6-(2-(1-t-butylamino-1-oxomethyl)phenyl)hexyl)-2-quinolinyl carboxamide]
0.676 | CC(C)(C)NC(=O)c1ccccc1C[C@@H](O)[C@H](Cc1ccccc1)NC(=O)[C@H](CC(=O)NCc1nc2ccccc2[nH]1)NC(=O)c1ccc2ccccc2n1 [Example 49, [1S-(1R*, 4R*, 5S*)]-N-(1-(2-(N-2-benzimidazolylmethyl)amino)-2-oxoethyl)-2-oxo-3-aza-4-phenylmethyl-5-hydroxy-6-(2-(1-t-butylamino-1-oxomethyl)phenyl)hexyl)-2-quinolinyl carboxamide]
